Series [1] can be described thus: Microsomal stability, mouse. The format is in vitro ADME. The settings on record: 1 μM, 30 min, 37°C. How it is done:
To evaluate the rate of drug metabolism, we tested YIAD002 stability in liver microsomes of human, rat, and mouse. Microsomal concentration was 0.5 mg/ml in 0.1 M phosphate buffer (pH 7.4). 1 μM of YIAD002 was added to microsome solutions and was prewarmed at 37°C for 5 min. NADPH-regenerating solution was added to microsomes and incubated at 37°C for 30 min. At the end of incubation, acetonitrile with chlorpropamide was added to stop reactions and microsomal solutions were centrifuged at 14,000 rpm at 4°C for 5 min. For LC-MS/MS analysis, supernatants were injected on a Kinetex C18 column (2.1 × 100 mm, 2.6 μm particle size, Phenomenex, USA). The composition of the mobile phase was 0.1% formic acid in water (A) and 0.1% formic acid in acetonitrile (B).

The target of series [2] is T1, Aβ-Aβ interactions (Aβ(1–42) fragments) (Homo sapiens, UniProt P05067).
T1 construct: we added monomeric Aβ(1–42) (10 μM) labeled with fluorescent dye Flamma 552 to each well
T1 sequence (P05067 672-713): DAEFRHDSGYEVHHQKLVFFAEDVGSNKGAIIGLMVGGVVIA
The series can be described thus: Mapping assay of Aβ(1–42) with peptide fragments. The conditions noted are these: YIAD002 500 μM, 24 h, Flamma 552-labeled Aβ(1–42) 10 μM, compared to full-length Aβ(1–42) control. Format: biochemical. As to the method: Aβ fragments made up of six overlapping amino acid residues and a cysteine residue at the C-terminal were acquired by Fmoc solid phase peptide synthesis as previously described. Full length Aβ(1–42) with an additional cysteine residue at the C-terminal was used for comparison. The peptides were dissolved in DMSO ([…]) and diluted in binding buffer (0.1 M sodium phosphate, 0.15 M sodium chloride, 10 mM EDTA; pH 7.2) to prepare 50 μg/mL peptide solutions. To immobilize the Aβ fragments and monomers to maleimide-activated microplates, 100 μL of peptide solutions (50 μg/mL) was added and incubated at RT for 2 h while shaking. Cysteine solution (10 μg/mL with binding buffer) was added to cap unreacted maleimide groups. […] To define the fluorescence baseline for each well, fluorescence intensity was measured at 555 (excitation) and 580 (emission). YIAD002 (500 μM in binding buffer, 7.5% DMSO) was added to each well and incubated at RT for 24 h while shaking. Fluorescence intensity was remeasured at 555 (excitation) and 580 (emission) and baseline fluorescence was subtracted to quantify the change in fluorescence intensity caused by YIAD002. The plate was washed with 200 μL of wash buffer (0.1 M sodium phosphate, 0.15 M sodium chloride, 0.05% Tween®-20 Detergent; pH 7.2) per well three times in between steps.

The next series has as its system APP/PS1 mice. As to the kind of experiment: Morris water maze in APP/PS1 mice. The format is in vivo, mouse. The conditions noted are these: 30 mg/kg/day oral, 10 weeks, vs vehicle. How it is done:
To test whether YIAD002 could reduce amyloid plaques in another AD mouse model, APP/PS1 transgenic mice (n = 24) and wildtype mice (n = 5) were assessed at the age of 7.5 months. YIAD002 was dissolved in PBS (0.5% methylcellulose) at two different concentrations (10 and 30 mg/kg/day) and administrated daily to APP/PS1 mice (n = 8 for each group) via oral gavage for 8 weeks. As a control, vehicle solutions were orally administrated to littermate APP/PS1 mice (n = 8) and wildtype mice (n = 5).
The Morris water maze was used to evaluate whether YIAD002 could improve cognitive function in APP/PS1 mice during the tenth week of administration. A circular stainless pool with a radius of 90 cm and height of 50 cm with water kept at 22±1°C. Nontoxic opaque white paint was used to hide a platform with a radius of 9 cm hidden 1 cm beneath the surface. The training phase consisted of 5 days, in which the mice were given 60 s to find the platform. On circumstances where a mouse could not reach the platform within 60 s, it was placed on the platform where it had to remain for 10 s. The probe test took place on the sixth day, in which the platform was removed and the mice swam freely for 60 s. Swimming trajectories were recorded and analyzed using SMART VIDEO TRACKING Software (Panlab, USA). To assess cognitive improvement in YIAD002-treated mice groups, latency to target (seconds) and the number of target crossings were compared to vehicle-treated APP/PS1 mice. After the probe trial, the mice were sacrificed and the collected brains were fixed in formalin.

In a further series the target is T2, Aβ(pE3-42) aggregates (Homo sapiens, UniProt P05067).
T2 construct: Aβ(pE3-42), p[…]; made in house; host or cells: chemical synthesis (Fmoc solid phase peptide synthesis)
T2 sequence (P05067 674-713): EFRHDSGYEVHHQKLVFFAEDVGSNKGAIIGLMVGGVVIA
As to the kind of experiment: ThT fluorescence Aβ(pE3-42) disaggregation assay. Format: biochemical. The settings on record: Fig. 4D. How it is done:
ThT fluorescence was used to assess the in vitro inhibition of Aβ(1–42) and disaggregation of Aβ(1–42), Aβ(1–40), Aβ(pE3-42), recombinant tau K18, and tau repeats R1, R2, R3, R4 by YIAD compounds. In house synthetic Aβ(1–42) was dissolved in DMSO (1 mM, 100% DMSO) and diluted to 20-fold in deionized water to make 50 μM Aβ(1–42) stocks (5% DMSO). YIAD compounds were first dissolved in DMSO (100 mM, 100% DMSO) and serially diluted with deionized water to make YIAD stocks with concentrations of 1, 10, 100, and 1000 μM (10% DMSO). For the Aβ(1–42) inhibition assay, monomeric Aβ(1–42) stocks and YIAD stocks were co-incubated at 37°C for 3 days. For Aβ(1–42) disaggregation assay, monomeric Aβ(1–42) stocks were preincubated at 37°C for three days to form Aβ(1–42) aggregates, and subsequently, YIAD stocks were added for an additional 3 days. For Aβ(1-40) disaggregation assays, Aβ(1–40) (50 μM, 5% DMSO) was preincubated at 37°C for 3 days to induce aggregation, and co-incubated with YIAD001 and YIAD002 for an additional 3 days. […] Prior to fluorescence intensity measurement, ThT solution (5 μM) was prepared by dissolving ThT, purchased from Sigma-Aldrich (MO, USA) in 50 mM glycine buffer (pH 8.5). To quantify the effect of inhibition and disaggregation, 25 μL of all samples and 75 μL of ThT solution were loaded into a half-area 96-well black plate in triplicate.

`CCC(C)(C)c1ccc(OCC(O)CN2CCCC2)c(C(C)(C)CC)c1.Cl` (stereo not drawn) [YIAD002, 1-(3-(2,4-Di-tert-pentylphenoxy)-2-hydroxypropyl)pyrrolidin-1-ium chloride]: in series [1], the “Remaining compound in mouse microsomes” value came out at 14.2%. Moreover, the “Dissociation of Aβ-Aβ interactions at immobilised Aβ fragments” value in series [2] was “markedly dissociated Aβ-Aβ interactions at residues Aβ(16–21), KLVFFA, and Aβ(32–37), IGLMVG”. Further, in the series with APP/PS1 mice (7.5-month-old APP/PS1 mice), the “Escape latency after 5 days of training” value is given as “significantly shortened”. Moreover, in the series with APP/PS1 mice (APP/PS1 mice), the “Latency to target, probe trial” value was “significantly shorter” and the “Target crossings, probe trial” value is “increased target crossings”. Further, the “Dissociative activity against Aβ(pE3-42) aggregates” value at Aβ(pE3-42) aggregates was “dissociative activity”.

Source of the values: article PMC9706920, “Aryloxypropanolamine targets amyloid aggregates and reverses Alzheimer-like phenotypes in Alzheimer mouse models” (Alzheimer's Research & Therapy, 2022).
